PubChem BioAssay AID248 (DTP/NCI, 2004)
Inconclusive results and toxic doses are left out. Cut-off read from the data, not from the text of the source: active = T/C of 150% or more; inactive = T/C below 125%.

Test system: L1210 leukemia ip in BDF1 mice, survival T/C
Experiment: NCI In Vivo Anticancer Drug Screen. Data for tumor model L1210 Leukemia (intraperitoneal) in B6D2F1 (BDF1) mice
Conditions: endpoint: mean survival time, higher = longer survival
How it was run: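 Value reflects the ratio of survival in compound-treated mice to survival in vehicle-treated controls, with both groups carrying the same transplanted tumor.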

[1] = dose: 75.0 mg/kg/injection, schedule: Q01DX001 (ip), vehicle: saline
[2] = dose: 150.0 mg/kg/injection, schedule: Q01DX001 (ip), vehicle: saline
[3] = dose: 100.0 mg/kg/injection, schedule: Q01DX009 (ip), vehicle: Klucel (hydroxypropylcellulose) (HPC)
[4] = dose: 100.0 mg/kg/injection, schedule: Q04DX003 (ip), vehicle: Klucel (hydroxypropylcellulose) (HPC)
[5] = dose: 200.0 mg/kg/injection, schedule: Q01DX009 (ip), vehicle: Klucel (hydroxypropylcellulose) (HPC)
[6] = dose: 200.0 mg/kg/injection, schedule: Q04DX003 (ip), vehicle: Klucel (hydroxypropylcellulose) (HPC)
[7] = dose: 400.0 mg/kg/injection, schedule: Q04DX003 (ip), vehicle: Klucel (hydroxypropylcellulose) (HPC)
[8] = dose: 100.0 mg/kg/injection, schedule: Q01DX001 (ip), vehicle: saline
[9] = dose: 200.0 mg/kg/injection, schedule: Q01DX001 (ip), vehicle: saline
[10] = dose: 25.0 mg/kg/injection, schedule: Q01DX009 (ip), vehicle: saline
[11] = dose: 50.0 mg/kg/injection, schedule: Q01DX009 (ip), vehicle: saline
[12] = dose: 100.0 mg/kg/injection, schedule: Q04DX003 (ip), vehicle: saline
[13] = dose: 400.0 mg/kg/injection, schedule: Q01DX001 (ip), vehicle: saline

Measured: T/C

CCCC(C)c1c(N)nc(N)[nH]c1=O (stereo not drawn)
inactive: dose: 80.0 mg/kg/injection, schedule: Q01DX001 (ip), vehicle: Klucel (hydroxypropylcellulose) (HPC) 103 % of control | dose: 160.0 mg/kg/injection, schedule: Q01DX001 (ip), vehicle: Klucel (hydroxypropylcellulose) (HPC) 92 % of control | dose: 320.0 mg/kg/injection, schedule: Q01DX001 (ip), vehicle: Klucel (hydroxypropylcellulose) (HPC) 94 % of control

O=C1CCC[C@@H]2[C@H]3CCCN4CCC[C@@H](CN12)[C@@H]34
inactive: [1] 105 % of control | [2] 96 % of control

Cc1cc(C)c2c(c1C)OC(C)(C)C=C2
inactive: [3] 98 % of control | [4] 98 % of control | [5] 100 % of control | [6] 107 % of control | dose: 400.0 mg/kg/injection, schedule: Q01DX009 (ip), vehicle: Klucel (hydroxypropylcellulose) (HPC) 97 % of control | [7] 100 % of control

COc1c2c(cc3c1C1(O)Cc4ccc5c(c4C[N+]1(C)CC3)OCO5)OCO2 (stereo not drawn)
inactive: [8] 95 % of control | [9] 91 % of control

Oc1c(Cl)cc(Cl)cc1Sc1cc(Cl)cc(Cl)c1O
inactive: dose: 100.0 mg/kg/injection, schedule: Q04DX002 (ip), vehicle: saline 114 % of control | dose: 200.0 mg/kg/injection, schedule: Q04DX002 (ip), vehicle: saline 100 % of control | dose: 400.0 mg/kg/injection, schedule: Q04DX002 (ip), vehicle: saline 114 % of control

CCOC(=O)C(C)Oc1cccc(O)c1[N+](=O)[O-] (stereo not drawn)
inactive: dose: 100.0 mg/kg/injection, schedule: Q01DX001 (ip), vehicle: saline with Tween-80 95 % of control | dose: 200.0 mg/kg/injection, schedule: Q01DX001 (ip), vehicle: saline with Tween-80 97 % of control | dose: 400.0 mg/kg/injection, schedule: Q01DX001 (ip), vehicle: saline with Tween-80 90 % of control

CCCC1(CCC)NC(=O)N(CC(N)=O)C1=O
inactive: dose: 100.0 mg/kg/injection, schedule: Q04DX003 (ip), vehicle: saline with Tween-80 100 % of control | dose: 200.0 mg/kg/injection, schedule: Q04DX003 (ip), vehicle: saline with Tween-80 102 % of control | dose: 400.0 mg/kg/injection, schedule: Q04DX003 (ip), vehicle: saline with Tween-80 98 % of control

COc1cc(C(=O)O)ccc1OCCNS(C)(=O)=O
inactive: dose: 100.0 mg/kg/injection, schedule: Q01DX001 (ip), vehicle: Klucel (hydroxypropylcellulose) (HPC) 96 % of control | [4] 105 % of control | dose: 200.0 mg/kg/injection, schedule: Q01DX001 (ip), vehicle: Klucel (hydroxypropylcellulose) (HPC) 102 % of control | [6] 96 % of control | dose: 400.0 mg/kg/injection, schedule: Q01DX001 (ip), vehicle: Klucel (hydroxypropylcellulose) (HPC) 100 % of control | [7] 94 % of control

Nc1ccc(C(O)(C(F)(F)F)C(F)(F)F)c(C(=O)O)c1
inactive: dose: 100.0 mg/kg/injection, schedule: Q04DX003 (ip), vehicle: other 101 % of control | dose: 200.0 mg/kg/injection, schedule: Q04DX003 (ip), vehicle: other 101 % of control | dose: 400.0 mg/kg/injection, schedule: Q04DX003 (ip), vehicle: other 101 % of control

Cc1ccc(S(=O)(=O)OCC2OC(n3cnc4c(N)ncnc43)C(OS(=O)(=O)c3ccc(C)cc3)C2N=[N+]=[N-])cc1 (stereo not drawn)
inactive: dose: 100.0 mg/kg/injection, schedule: Q01DX005 (ip), vehicle: saline 106 % of control | dose: 200.0 mg/kg/injection, schedule: Q01DX005 (ip), vehicle: saline 92 % of control

COC(=O)C1(C(=O)OC)C2CC(C)=C(C)CC21 (stereo not drawn)
inactive: [10] 109 % of control | [11] 93 % of control | dose: 100.0 mg/kg/injection, schedule: Q01DX009 (ip), vehicle: acetone 90 % of control | dose: 100.0 mg/kg/injection, schedule: Q01DX009 (ip), vehicle: saline 104 % of control | dose: 200.0 mg/kg/injection, schedule: Q01DX009 (ip), vehicle: acetone 94 % of control | dose: 400.0 mg/kg/injection, schedule: Q01DX009 (ip), vehicle: acetone 87 % of control

N#Cc1nn(CCCl)c(=O)c2ccccc12
inactive: dose: 100.0 mg/kg/injection, schedule: Q01DX001 (ip), vehicle: alcohol 98 % of control | dose: 100.0 mg/kg/injection, schedule: Q04DX003 (ip), vehicle: alcohol 95 % of control | dose: 200.0 mg/kg/injection, schedule: Q01DX001 (ip), vehicle: alcohol 107 % of control | dose: 200.0 mg/kg/injection, schedule: Q04DX003 (ip), vehicle: alcohol 97 % of control | dose: 400.0 mg/kg/injection, schedule: Q01DX001 (ip), vehicle: alcohol 107 % of control | dose: 400.0 mg/kg/injection, schedule: Q04DX003 (ip), vehicle: alcohol 87 % of control

CCCCCc1ccc(C(C)=O)cc1
inactive: [12] 100 % of control | dose: 200.0 mg/kg/injection, schedule: Q04DX003 (ip), vehicle: saline 114 % of control | dose: 400.0 mg/kg/injection, schedule: Q04DX003 (ip), vehicle: saline 114 % of control

CN(CCN1CCCCC1)C(=O)C(O)(c1ccccc1)C1CCCCC1 (stereo not drawn)
inactive: [1] 96 % of control | [2] 97 % of control

CCCCCCCCCCCCCCCCOc1ccc(C(=O)Nc2ccc(S(=O)(=O)Nc3cccc4ccccc34)cc2)cc1S(=O)(=O)F
inactive: [4] 102 % of control | [6] 100 % of control | [7] 93 % of control

CSC(N)=Nc1ccccc1
inactive: dose: 87.5 mg/kg/injection, schedule: Q01DX009 (ip), vehicle: saline 96 % of control | dose: 175.0 mg/kg/injection, schedule: Q01DX009 (ip), vehicle: saline 100 % of control

CCCCCCCCCCCCCCCCCCNC(=O)NCCc1ccccc1
inactive: dose: 100.0 mg/kg/injection, schedule: Q04DX002 (ip), vehicle: Klucel (hydroxypropylcellulose) (HPC) 105 % of control | dose: 200.0 mg/kg/injection, schedule: Q04DX002 (ip), vehicle: Klucel (hydroxypropylcellulose) (HPC) 99 % of control | dose: 400.0 mg/kg/injection, schedule: Q04DX002 (ip), vehicle: Klucel (hydroxypropylcellulose) (HPC) 92 % of control

NS(=O)(=O)CS(N)(=O)=O
inactive: [8] 100 % of control | [9] 96 % of control | [13] 96 % of control

CN(C)c1ccc(/C=N/Nc2nnc(N/N=C/c3ccc(N(C)C)cc3Cl)c3ccccc23)c(Cl)c1
inactive: dose: 50.0 mg/kg/injection, schedule: Q01DX001 (ip), vehicle: saline 102 % of control | [8] 100 % of control | [9] 100 % of control | [13] 92 % of control

COc1ccc(Cl)cc1NC(=O)Nc1nccs1
inactive: [3] 98 % of control | [4] 101 % of control | [5] 92 % of control | [6] 97 % of control | [7] 95 % of control

c1ccc2c[n+](Cc3nc4ccccc4[nH]3)ccc2c1
inactive: [1] 101 % of control

O=C1Nc2ccccc2C1=Nc1ccc2[nH]c3ccccc3c2c1
inactive: dose: 100.0 mg/kg/injection, schedule: Q01DX001 (ip), vehicle: carboxymethylcellulose (CMC) 91 % of control | dose: 200.0 mg/kg/injection, schedule: Q01DX001 (ip), vehicle: carboxymethylcellulose (CMC) 94 % of control | dose: 400.0 mg/kg/injection, schedule: Q01DX001 (ip), vehicle: carboxymethylcellulose (CMC) 91 % of control

CS(=O)(=O)OCCC(COS(C)(=O)=O)S(=O)(=O)Cc1ccccc1 (stereo not drawn)
inactive: dose: 15.0 mg/kg/injection, schedule: Q01DX001 (ip), vehicle: saline 101 % of control | dose: 30.0 mg/kg/injection, schedule: Q01DX001 (ip), vehicle: saline 104 % of control

[Si]c1cccc2ccccc12
inactive: dose: 25.6 mg/kg/injection, schedule: Q04DX002 (ip), vehicle: saline with Tween-80 97 % of control | dose: 64.0 mg/kg/injection, schedule: Q04DX002 (ip), vehicle: saline with Tween-80 97 % of control | dose: 160.0 mg/kg/injection, schedule: Q04DX002 (ip), vehicle: saline with Tween-80 97 % of control | dose: 400.0 mg/kg/injection, schedule: Q04DX002 (ip), vehicle: saline with Tween-80 101 % of control

CN1CC(C(=O)N2CCCCC2)C=C2c3cccc4[nH]cc(c34)CC21 (stereo not drawn)
inactive: dose: 3.12 mg/kg/injection, schedule: Q01DX009 (ip), vehicle: saline 95 % of control | dose: 6.25 mg/kg/injection, schedule: Q01DX009 (ip), vehicle: saline 97 % of control | dose: 12.5 mg/kg/injection, schedule: Q01DX009 (ip), vehicle: saline 98 % of control | [10] 104 % of control | dose: 25.0 mg/kg/injection, schedule: Q04DX003 (ip), vehicle: saline 100 % of control | [11] 93 % of control | dose: 50.0 mg/kg/injection, schedule: Q04DX003 (ip), vehicle: saline 98 % of control | [12] 97 % of control
